Laboratory results reported in patent US11478552B2, “Hybrid carriers for nucleic acid cargo” (CureVac AG, priority 2016, dated 2022).

Experiments:
HepG2 cells = experiment: Transfection of HepG2 cells with GpLuc mRNA, luminescence of supernatant (Example 3); assay type: cell-based; conditions: small amounts of lipidoid added to PB83, GpLuc mRNA, 24 h post transfection
Description: For luminescence analysis, a volume of 10 μL supernatant was transferred to a 96 well plate for GpLuc measurement. Then, coelenterazine working solution (100 μM) was prepared (1 mL coelenterazine stock solution (4.72 mM in EtOH) in 49 mL phosphate buffered saline supplemented with 5 mM NaCl, pH 7.2). A volume of 100 μL coelenterazine working solution was used as a substrate for GpLuc and measured after 5 seconds in a commercially available microplate reader.
The experiments were conducted as described in the previous Example, except that HepG2 cells were transfected instead of Sol8 cells. A volume of 0.2 mL HepG2 cells (10.000 cells) were seeded in a 96 well tissue culture plate. After removing the medium from each well, 100 μL RPMI 1640 medium (with 1% Penicillin and 1% Streptomycin, 1% L-Glutamin) was added to each well. Afterwards, HepG2 cells were transfected with 100 μL transfection mix (in triplicates) of polymer-lipidoid mRNA complexes and respective controls (in triplicates), and cells were incubated at 37° C. and 5% CO2 for 90 minutes. After incubation, 150 μL medium was exchanged with 150 μL fresh RPMI 1640 medium supplemented with 10% fetal calf serum. Twenty-four hours post transfection, 10 μL of supernatant of each well was extracted and used for further luminescence analysis.

[1] = test system: differentiated Sol8 cells; experiment: Transfection of Sol8 muscle cells with GpLuc mRNA, luminescence of supernatant (Example 2); assay type: cell-based, C3H mouse; conditions: small amounts of lipidoid added to PB83, GpLuc mRNA (SEQ ID NO: 12), 24 h post transfection
Description: Sol8 is a myogenic cell line isolated by Daubas et al. from primary cultures of soleus muscle taken from the leg of a normal C3H mouse. A volume of 0.2 mL Sol8 cells (20.000 cells) were seeded in 96 well glass bottom plates (Softwell Hydrogel coated with collagen, elasticity E=12 kPa) on day 1. After removing the medium from each well, 100 μL DMEM medium (with 2% horse serum) was added to each well. Afterwards, on day 2, Sol8 cells were transfected with 100 μL transfection mix (in triplicates) of polymer-lipidoid complexes prepared according to Example 1) and respective controls (in triplicates), and cells were incubated at 37° C. and 5% CO2 for 120 minutes. After incubation, 150 μL medium was exchanged with 150 μL fresh DMEM medium supplemented with 10% fetal calf serum. Twenty-four hours post transfection, i.e. on day 3, 10 μL of supernatant of each well was extracted and used for further luminescence analysis, which was performed as described below. […]
For luminescence analysis, a volume of 10 μL supernatant was transferred to a 96 well plate for GpLuc measurement. […] A volume of 100 μL coelenterazine working solution was used as a substrate for GpLuc and measured after 5 seconds in a commercially available microplate reader.

Compound: CCCCCCCCCCC(O)C[N+](C)(C)CCN(CC[N+](C)(C)CC(O)CCCCCCCCCC)CC[N+](C)(C)CC(O)CCCCCCCCCC (centres unmarked) [3-C12-OH-cat]
- transfection efficiency (GpLuc luminescence) (HepG2 cells): profound increase of transfection efficiency

Compound: CCCCCCCCCCC(O)CNCCN(CCNCC(O)CCCCCCCCCC)CCNCC(O)CCCCCCCCCC (centres unmarked) [3-C12-OH]
- transfection efficiency (GpLuc luminescence) [1]: profound increase of transfection efficiency
- transfection efficiency (GpLuc luminescence) (HepG2 cells): profound increase of transfection efficiency

Compound: CCCCCCCCCCCCNCCN(CCNCCCCCCCCCCCC)CCNCCCCCCCCCCCC [3-C12]
- transfection efficiency (GpLuc luminescence) [1]: profound increase of transfection efficiency
- transfection efficiency (GpLuc luminescence) (HepG2 cells): profound increase of transfection efficiency
